Measurements from article PMC6941952, “A homogeneous bioluminescent immunoassay to probe cellular signaling pathway regulation” (Communications Biology, 2020).

System: phospho-IκBα (Ser32)
Test: NanoBiT cell-based immunoassay, phosphorylated IκBα in MCF-7 cells
Set-up: species or system human
Conditions: plate #2; for Subtract reagent background / Raw data: TNF
Procedure: Prior to NanoBiT Cell-Based Immunoassay, 50,000 cells were seeded in 160 µl of complete growth media per well of a 96-well plate and incubated overnight. The cells were checked under microscope and it was determined that 50,000 cells per well in 96-well plate is under 90% confluency for all cells tested. If necessary, the cell culture media were replaced with serum-free media after the cells were stably adherent on the plate and incubated overnight. To treat cells with activators or inhibitors, medium was changed to 30 µl of medium containing inhibitors. If activation of a specific pathway is needed, the cells were stimulated with 10 µl of medium containing activators. To lyse the cells, 10 µl of lysis buffer containing 0.1% digitonin diluted in 1X immunoassay buffer with protease and phosphatase inhibitors was added and the plates were mixed vigorously for 20 min. Then, 50 µl of an antibody mix containing two primary antibodies against the target protein and NanoBiT detecting antibodies (0.3 µl each per well), diluted in 1X immunoassay buffer was added to the lysates. The plates were incubated at 23 °C for 90 min, followed by the addition of 25 µl of Nano-Glo® reagent consisting of Nano-Glo® Luciferase Assay Substrate mixed with 1X immunoassay buffer. Luminescence was measured using a plate-reading luminometer.
In all, 50,000 MCF-7 cells were seeded in 160 µl complete growth medium per well of a 96-well plate and incubated overnight. Half of the cells were treated with 50 ng per ml TNFα and half with vehicle. Cells were lysed as described above and a mixture of NanoBiT secondary antibodies with primary antibodies at the matrix concentrations described in Fig. 2a were added. After 90 min incubation, the Nano-Glo® reagent was added to the reactions as described above and luminescence was measured using a plate-reading luminometer.
Single dose or dose response inhibitor treatments were performed prior to activation of the pathways as follows. For IκBα, the cells were treated in 30 µl medium with IKK16 or MG132 for 60 min before the addition of 10 µl of DMEM containing appropriate concentration of TNFα. To measure phosphorylation of AKT or STAT3, the corresponding NanoBiT immunoassays were developed with MCF-7 or A431 cells, respectively, according the same scheme used to develop the IκBα assay using the primary antibodies for AKT and STAT3 described in the reagents section. For the AKT assay, MCF-7 cells were incubated overnight in phenol-red free DMEM medium (Gibco #21063-029) without serum. Treatment with LY294002 was performed in 30 µl medium and cells were incubated for 60 min before the addition of 1 µM Insulin. To measure STAT3 phosphorylation, A431 cells were incubated overnight in DMEM medium without serum. […] After addition of the stimulators, the cells were incubated for additional times as follows. IκBα phosphorylation and degradation analyses required both time courses and single time points as described in figures. […] The NanoBiT immunoassay protocol was followed as described above.
All 96-well assay plates were read using a GloMax® 96 Microplate Luminometer from Promega. The instrument was set to 0.5 s integration time. In order to obtain net change of signal, the reagent background values (signal from the well containing all reagent except primary antibodies) were subtracted from the sample values. To plot and analyze the data, Microsoft Excel and GraphPad Prism® Software were used. IC50 values were determined by using a nonlinear regression fit to a sigmoidal dose response (variable slope).

[1] = IkB Ab #2 75 ng/ml, P-IkB Ab #1 300 ng/ml
[2] = IkB Ab #2 75 ng/ml, P-IkB Ab #1 600 ng/ml
[3] = IkB Ab #2 75 ng/ml, P-IkB Ab #1 1200 ng/ml
[4] = IkB Ab #2 150 ng/ml, P-IkB Ab #1 75 ng/ml
[5] = IkB Ab #2 150 ng/ml, P-IkB Ab #1 150 ng/ml
[6] = IkB Ab #2 150 ng/ml, P-IkB Ab #1 300 ng/ml
[7] = IkB Ab #2 150 ng/ml, P-IkB Ab #1 600 ng/ml
[8] = IkB Ab #2 150 ng/ml, P-IkB Ab #1 1200 ng/ml
[9] = IkB Ab #2 300 ng/ml, P-IkB Ab #1 75 ng/ml
[10] = IkB Ab #2 300 ng/ml, P-IkB Ab #1 150 ng/ml
[11] = IkB Ab #2 300 ng/ml, P-IkB Ab #1 300 ng/ml
[12] = IkB Ab #2 300 ng/ml, P-IkB Ab #1 600 ng/ml
[13] = IkB Ab #2 300 ng/ml, P-IkB Ab #1 1200 ng/ml
[14] = IkB Ab #2 600 ng/ml, P-IkB Ab #1 75 ng/ml
[15] = IkB Ab #2 600 ng/ml, P-IkB Ab #1 150 ng/ml
[16] = IkB Ab #2 600 ng/ml, P-IkB Ab #1 300 ng/ml
[17] = IkB Ab #2 600 ng/ml, P-IkB Ab #1 600 ng/ml
[18] = IkB Ab #2 600 ng/ml, P-IkB Ab #1 1200 ng/ml
[19] = IkB Ab #2 1200 ng/ml, P-IkB Ab #1 75 ng/ml
[20] = IkB Ab #2 1200 ng/ml, P-IkB Ab #1 150 ng/ml
[21] = IkB Ab #2 1200 ng/ml, P-IkB Ab #1 300 ng/ml
[22] = IkB Ab #2 1200 ng/ml, P-IkB Ab #1 600 ng/ml
[23] = IkB Ab #2 1200 ng/ml, P-IkB Ab #1 1200 ng/ml

Work on TNFα yielded a Subtract reagent background (IkB Ab #2 75 ng/ml, P-IkB Ab #1 150 ng/ml) of 2170, a Raw data [1] of 21130 and a Subtract reagent background [1] of 2610. For the same substance, the Raw data [2] was 21060, the Subtract reagent background [2] was 2540 and the Raw data [3] was 19400. It also gave a Subtract reagent background [3] of 880, a Raw data [4] of 21700 and a Subtract reagent background [4] of 3180. The Raw data [5] was 21690, the Subtract reagent background [5] was 3170 and the Raw data [6] was 22220. The Subtract reagent background [6] was 3700, the Raw data [7] was 20830 and the Subtract reagent background [7] was 2310. The Raw data [8] was 19240, the Subtract reagent background [8] was 720 and the Raw data [9] was 22450. The Subtract reagent background [9] was 3930, the Raw data [10] was 22650 and the Subtract reagent background [10] was 4130. It also gave a Raw data [11] of 23650, a Subtract reagent background [11] of 5130 and a Raw data [12] of 20040. The Subtract reagent background [12] was 1520, the Raw data [13] was 19000 and the Subtract reagent background [13] was 480. For the same substance, the Raw data [14] was 22640, the Subtract reagent background [14] was 4120 and the Raw data [15] was 23720. For the same substance, the Subtract reagent background [15] was 5200, the Raw data [16] was 23520 and the Subtract reagent background [16] was 5000. For the same substance, the Raw data [17] was 22360, the Subtract reagent background [17] was 3840 and the Raw data [18] was 20110. The Subtract reagent background [18] was 1590, the Raw data [19] was 22600 and the Subtract reagent background [19] was 4080. For the same substance, the Raw data [20] was 23950, the Subtract reagent background [20] was 5430 and the Raw data [21] was 23940. It also gave a Subtract reagent background [21] of 5420, a Raw data [22] of 23180 and a Subtract reagent background [22] of 4660. The Raw data [23] was 21820, the Subtract reagent background [23] was 3300 and the “Fold change (TNF-treated /Non-treated)” value (IkB Ab #2 (Mouse) 75 ng/ml, P-IkB Ab #1 (Rabbit) 75 ng/ml) was 1.212. The “Fold change (TNF-treated /Non-treated)” value (IkB Ab #2 (Mouse) 75 ng/ml, P-IkB Ab #1 (Rabbit) 75 ng/ml, listed as TNF) was 1.2, the “Fold change (TNF-treated /Non-treated)” value (IkB Ab #2 (Mouse) 75 ng/ml, P-IkB Ab #1 (Rabbit) 150 ng/ml) was 1.09 and the “Fold change (TNF-treated /Non-treated)” value (IkB Ab #2 (Mouse) 75 ng/ml, P-IkB Ab #1 (Rabbit) 150 ng/ml, listed as TNF) was 1.1. The “Fold change (TNF-treated /Non-treated)” value (IkB Ab #2 (Mouse) 75 ng/ml, P-IkB Ab #1 (Rabbit) 300 ng/ml) was 1.197, the “Fold change (TNF-treated /Non-treated)” value (IkB Ab #2 (Mouse) 75 ng/ml, P-IkB Ab #1 (Rabbit) 300 ng/ml, listed as TNF) was 1.2 and the “Fold change (TNF-treated /Non-treated)” value (IkB Ab #2 (Mouse) 75 ng/ml, P-IkB Ab #1 (Rabbit) 600 ng/ml) was 1.104. For the same substance, the “Fold change (TNF-treated /Non-treated)” value (IkB Ab #2 (Mouse) 75 ng/ml, P-IkB Ab #1 (Rabbit) 1200 ng/ml) was 0.4356, the “Fold change (TNF-treated /Non-treated)” value (IkB Ab #2 (Mouse) 150 ng/ml, P-IkB Ab #1 (Rabbit) 150 ng/ml) was 1.447 and the “Fold change (TNF-treated /Non-treated)” value (IkB Ab #2 (Mouse) 150 ng/ml, P-IkB Ab #1 (Rabbit) 150 ng/ml, listed as TNF) was 1.4. The “Fold change (TNF-treated /Non-treated)” value (IkB Ab #2 (Mouse) 150 ng/ml, P-IkB Ab #1 (Rabbit) 300 ng/ml) was 1.271, the “Fold change (TNF-treated /Non-treated)” value (IkB Ab #2 (Mouse) 150 ng/ml, P-IkB Ab #1 (Rabbit) 300 ng/ml, listed as TNF) was 1.3 and the “Fold change (TNF-treated /Non-treated)” value (IkB Ab #2 (Mouse) 150 ng/ml, P-IkB Ab #1 (Rabbit) 600 ng/ml) was 0.8684. For the same substance, the “Fold change (TNF-treated /Non-treated)” value (IkB Ab #2 (Mouse) 150 ng/ml, P-IkB Ab #1 (Rabbit) 600 ng/ml, listed as TNF) was 0.9, the “Fold change (TNF-treated /Non-treated)” value (IkB Ab #2 (Mouse) 150 ng/ml, P-IkB Ab #1 (Rabbit) 1200 ng/ml) was 0.2618 and the “Fold change (TNF-treated /Non-treated)” value (IkB Ab #2 (Mouse) 150 ng/ml, P-IkB Ab #1 (Rabbit) 1200 ng/ml, listed as TNF) was 0.262. For the same substance, the “Fold change (TNF-treated /Non-treated)” value (IkB Ab #2 (Mouse) 300 ng/ml, P-IkB Ab #1 (Rabbit) 150 ng/ml) was 1.886, the “Fold change (TNF-treated /Non-treated)” value (IkB Ab #2 (Mouse) 300 ng/ml, P-IkB Ab #1 (Rabbit) 150 ng/ml, listed as TNF) was 1.9 and the “Fold change (TNF-treated /Non-treated)” value (IkB Ab #2 (Mouse) 300 ng/ml, P-IkB Ab #1 (Rabbit) 300 ng/ml) was 2.24. For the same substance, the “Fold change (TNF-treated /Non-treated)” value (IkB Ab #2 (Mouse) 300 ng/ml, P-IkB Ab #1 (Rabbit) 300 ng/ml, listed as TNF) was 2.2, the “Fold change (TNF-treated /Non-treated)” value (IkB Ab #2 (Mouse) 300 ng/ml, P-IkB Ab #1 (Rabbit) 600 ng/ml) was 1.197 and the “Fold change (TNF-treated /Non-treated)” value (IkB Ab #2 (Mouse) 300 ng/ml, P-IkB Ab #1 (Rabbit) 600 ng/ml, listed as TNF) was 1.2. For the same substance, the “Fold change (TNF-treated /Non-treated)” value (IkB Ab #2 (Mouse) 300 ng/ml, P-IkB Ab #1 (Rabbit) 1200 ng/ml) was 0.3429, the “Fold change (TNF-treated /Non-treated)” value (IkB Ab #2 (Mouse) 300 ng/ml, P-IkB Ab #1 (Rabbit) 1200 ng/ml, listed as TNF) was 0.343 and the “Fold change (TNF-treated /Non-treated)” value (IkB Ab #2 (Mouse) 600 ng/ml, P-IkB Ab #1 (Rabbit) 75 ng/ml) was 2.559. The “Fold change (TNF-treated /Non-treated)” value (IkB Ab #2 (Mouse) 600 ng/ml, P-IkB Ab #1 (Rabbit) 75 ng/ml, listed as TNF) was 2.6, the “Fold change (TNF-treated /Non-treated)” value (IkB Ab #2 (Mouse) 600 ng/ml, P-IkB Ab #1 (Rabbit) 150 ng/ml) was 2.826 and the “Fold change (TNF-treated /Non-treated)” value (IkB Ab #2 (Mouse) 600 ng/ml, P-IkB Ab #1 (Rabbit) 150 ng/ml, listed as TNF) was 2.8. The “Fold change (TNF-treated /Non-treated)” value (IkB Ab #2 (Mouse) 600 ng/ml, P-IkB Ab #1 (Rabbit) 300 ng/ml) was 2.155, the “Fold change (TNF-treated /Non-treated)” value (IkB Ab #2 (Mouse) 600 ng/ml, P-IkB Ab #1 (Rabbit) 300 ng/ml, listed as TNF) was 2.2 and the “Fold change (TNF-treated /Non-treated)” value (IkB Ab #2 (Mouse) 600 ng/ml, P-IkB Ab #1 (Rabbit) 600 ng/ml) was 2.11. For the same substance, the “Fold change (TNF-treated /Non-treated)” value (IkB Ab #2 (Mouse) 600 ng/ml, P-IkB Ab #1 (Rabbit) 600 ng/ml, listed as TNF) was 2.1 and the “Fold change (TNF-treated /Non-treated)” value (IkB Ab #2 (Mouse) 600 ng/ml, P-IkB Ab #1 (Rabbit) 1200 ng/ml) was 0.8281.
